Test results as given in patent US20230040415A1 (PureTech LYT 100, Inc., priority 2020, published 2023).
Read-outs that look alike come from different tables or passages of the source.

Legend:
[1] = Multiple ascending dose (MAD) study Part 1, plasma pharmacokinetics
Method: All Part 1 cohorts will be dosed every 12 hours with food for 5 days.
During the treatment period (Day 1 through Day 5), subjects will be administered their assigned study medication BID, every 12 h±0.25 h (with approximately 240 mL of non-carbonated water), 30 minutes after the start of consumption of their standardised breakfast or dinner (12 h apart). A standardised lunch will be served >4 h post breakfast and >4 h prior to dinner. An evening snack will be served >3 h following evening study medication administration. No additional fluids will be allowed during the 1 h pre- and post-doses. On Day 6, subjects will replicate mealtimes as scheduled on Day 1-5. To ensure study drug dosing every 12 hours, here is an example of meal and dosing schedule in Part 1: • Breakfast: meal to be served 30 mins prior to AM dosing. Breakfast must be completed within 30 mins of start time. • Lunch: meal to be served at least 4 h post-AM study drug dose. • Dinner: meal to be served at least 11.5 h post-AM dose and served 30 minutes prior to PM study drug dose. • Evening snack: Snack to be served at least 15 h post-AM dose (at least 3 h post-PM dose).
In Part 1, blood samples (4 mL each) for PK will be collected for Cohorts 1, 2, 3, 4, and 6 at specified times (hours) at each as follows: • Day 1 and Day 5: 0 (pre-dose), 0.5, 1, 1.5, 2, 2.5, 3, 3.5, 4, 6, 8, 12 (pre-dose), 13, 14, 15, 16, 18 h • Day 2, Day 3 and Day 4: 0 (pre-morning-dose) and 12 h (pre-evening-dose) • Day 6: 12, 18, 24 and 36 h post-last dose • Day 7: 48 h (post-last dose)
Pharmacokinetics for Day 1 to 3 in Part 2 (fed state) will be compared to PK for Day 1 to Day 3 in Part 2 (fasted state). Plasma PK parameters (non-compartmental or compartmental analysis as appropriate) will include, but are not limited to: • Following single dose: Tmax, tlag, Cmax, AUC0-4, AUC0-last, AUC0-inf, lambda z, % AUCext, CL/F, Vz/F, Cmax/D, AUC0-last/D, AUC0-inf/D and MRT (D is dose) • After repeated doses: Ctrough, Ctrough/D • Following repeated doses on last day: Tmax, Cmax, Cavg, tlag, t1/2, AUC0-4, AUC0-last, AUC0-inf, lambda z, % AUCext, CLss/F, Vzss/F, MRT, PTF, Rac(AUC), Rac(Cmax), Cmax/D, AUClast/D, AUC0-inf/D and Rac (accumulation ratio) Part 3 (Patients with Secondary Lymphoedema Post-Axillary/Post-Sentinel Node Dissection)

[2] = Repeat dose oral toxicity and toxicokinetics study in Sprague Dawley rats; conditions: for dose proportionality of AUC0-24 / dose proportionality of Cmax: SD-560 250 to 750 mg/kg, Groups 2 to 4; for exposure in rat relative to human: male rat after 28 days of daily dosing vs human
Method: The protocol was amended to add additional TK male animals in Group 6 for Day 1 collection of TK samples at 875 mg/kg.
Blood samples were collected from 3 subsets of 3 animals/sex on Day 1 and Day 28 at predose, 0.25, 0.5, 1, 2, 4, 8 and 24 hours (hr) post-dose for groups 2 to 6 and from one subset of 3 animals/sex at 0.25 hr post-dose for the vehicle group (group 1). […] Non-compartmental analysis (NCA) of plasma concentration data was conducted using Phoenix® WinNonlin®, version 8.0.

[3] = Single-dose crossover clinical trial, 801 mg LYT-100 vs pirfenidone, plasma pharmacokinetics; conditions: for Cmax / % AUC extrap / AUC0-t / AUC(inf) / Kel / t1/2 / tmax: fed, analyte = label; for Cmax / % AUC extrap / AUC0-t / AUC(inf) / Kel / t1/2: mean; for Cmax: n = 24; for tmax: median
From the text: Following screening, eligible healthy volunteer subjects were admitted to a single clinical study site and were randomized to 1 of 2 treatment sequences. […] In each period, a standardized breakfast was provided to subjects prior to administration of study drug (to compare the PK profiles in the clinically relevant fed state) and plasma samples were collected over a 48-hour period after dosing for evaluation of PK. Dosing between the 2 periods was separated by a minimum of 7 days. Subjects completed the study upon completion of the 48-hour post-dose assessments following dosing period 2.
All capsules were identical in size, shape, and external color.
The mean Cmax values are computed from each individual subjects Cmax value (which could occur at different Tmax times for each individual), i.e., the mean Cmax value reported in the PK parameter table is not the Cmax for a mean concentration-time curve.

[4] = Food effect study Part 2, single 500 mg dose fed vs fasted; type: in vivo, human
Method: The comparison will be based on Day 1, Day 2 and Day 3 PK plasma samples after the first dose of study drug on Day 1 under fast and fed conditions of Part 2.
Subjects will be admitted to the CRU on Day −1 and will fast overnight for at least 10 h.

[5] = design: AUC, Fasted / AUC, Fed: unit not given beside the values; conditions: cited from earlier work; for share of recovered drug material in urine excreted as label: humans, oral pirfenidone
[6] = cited from earlier work
[7] = FIG. 23 (Cohort 6, 1000 mg BID)
[8] = LYT-100 100, 250, 500, 750 mg BID cohorts (FIG. 19)
[9] = Day 1, Female, label = Group 4 analyte vs its non-deuterated counterpart
[10] = LYT-100 @500 mg single dose, analyte = label
[11] = LYT-100 @500 mg, 5-CO2 metabolite
[12] = Treatment = LYT-100, single 801 mg oral dose
[13] = Treatment = LYT-100, single 801 mg
[14] = Treatment = Pirfenidone, single 801 mg oral dose
[15] = Treatment = Pirfenidone, single 801 mg

Compound	average ratio of metabolite to the parent (M/P) by AUC [1, 7]	average ratio of metabolite to the parent (M/P) by AUC [1, 8]	AUC ratio Group 4 (LYT-100 at 750 mg/kg) / Group 5 (SD-559 at 750 mg/kg) [2, 9]	AUC ratio Group 4 (LYT-100 at 750 mg/kg) / Group 5 (SD-559 at 750 mg/kg) ([2]; Day 1, Male)	AUC ratio Group 4 (LYT-100 at 750 mg/kg) / Group 5 (SD-559 at 750 mg/kg) ([2]; Day 28, Female)	dose proportionality of AUC0-24 [2]	dose proportionality of Cmax [2]	share of recovered drug material in urine excreted as label [5]	AUC ratio Group 4 (LYT-100 at 750 mg/kg) / Group 5 (SD-559 at 750 mg/kg) ([2]; Day 28, Male)	exposure in rat relative to human [2] [fold]	Cmax [3, 12] [ng/mL]	% AUC extrap [3, 13] [%]	AUC0-t [3, 13] [ng·h/mL]	AUC(inf) [3, 13] [ng·h/mL]	Kel [3, 13] [h⁻¹]	t1/2 [3, 13] [h]	tmax [3, 13] [h]	Cmax [3, 14] [ng/mL]	% AUC extrap [3, 15] [%]	AUC0-t [3, 15] [ng·h/mL]	further results
[2H]C([2H])([2H])c1ccc(=O)n(-c2ccc(O)cc2)c1 [LYT-103, d3-4′-hydroxy-pirfenidone]	0.0037 (0.0030-0.0058)	0.0017 (0.0012-0.0022)	21.77	34.51	38.04	dose proportionally	less than dose proportional	–	–	–	–	–	–	–	–	–	–	–	–	–	quantifiability of metabolite in human ([3]; after LYT-100): not quantifiable
O=C(O)c1ccc(=O)n(-c2ccccc2)c1 [LYT-105, 5-carboxy-pirfenidone]	0.56 (0.44-0.66)	0.45	0.49	0.45	0.71	dose proportional	approximately dose proportional	> 95%	0.57	~7	3970	1.13	23090	23350	0.262	2.91	2.50	5241	0.843	26932	AUC, % Change Fed vs Fasted [4, 10]: < 5%; Cmax, % Change Fed vs Fasted [4, 10]: < 5%; Tmax, Fasted [4, 11]: 0.75 h; Tmax, Fed [4, 11]: 1 h; plasma exposure relative to exposure to pirfenidone ([5]; Huang, 2013): approximately 50%; average ratio of metabolite to the parent (M/P) by AUC ([1]; LYT-100 100, 250, 500, 750 mg BID cohorts (FIG. 19), listed as SD-789): 0.45 (0.37-0.50); dose dependence of AUC96-108 ([1]; across all dose Cohorts, 100-1000 mg BID): linear dose proportionality; lower Cmax and exposure than SD-789 formed from SD-559 ([2]; SD-560 750 mg/kg vs SD-559 750 mg/kg): approximately 50%; AUC(inf) [3, 15]: 27159 ng·h/mL; Kel [3, 15]: 0.288 h⁻¹; t1/2 [3, 15]: 2.55 h; tmax [3, 15]: 3.00 h; Cmax reduction of 5-carboxy-pirfenidone after LYT-100 relative to pirfenidone ([3]; single 801 mg dose each): 25%
[2H]C([2H])(O)c1ccc(=O)n(-c2ccccc2)c1 [LYT-110, 5-(hydroxymethyl-d2)-pirfenidone]	0.0028 (0.0018-0.0038)	0.0025 (0.0020-0.0029)	2.50	2.22	2.59	dose proportional	dose proportional	–	2.54	~1600	20.6	10.1	111	124	0.294	2.76	2.50	–	–	–	exposure and Cmax vs non-deuterated metabolite SD-788 from SD-559 ([2]; 750 mg/kg, all days, both genders): almost twice
O=c1ccc(CO)cn1-c1ccccc1 [LYT-111, 5-hydroxymethyl-pirfenidone]	–	–	–	–	–	–	–	–	–	–	–	–	–	–	–	–	–	17.1	10.3	75.8	AUC(inf) [3, 15]: 89.7 ng·h/mL; Kel [3, 15]: 0.367 h⁻¹; t1/2 [3, 15]: 2.04 h; tmax [3, 15]: 2.50 h; overall systemic exposure (AUC) of metabolite greater after LYT-100 than after pirfenidone ([3]; single 801 mg dose each): approximately 50%
Cc1ccc(=O)n(-c2ccccc2)c1 [Pirfenidone, 5-methyl-1-phenyl-1H-pyridin-2-one]	–	–	–	–	–	–	–	less than 1%	–	–	–	–	–	–	–	–	–	–	–	–	AUC, Fasted ([5]; Pirfenidone @800 mg): 69.7; AUC, Fed ([5]; Pirfenidone @800 mg): 59.3; Tmax, % Change Fed vs Fasted ([5]; Pirfenidone @800 mg): 500%; Tmax, Fasted ([5]; Pirfenidone @800 mg): 0.5 h; diarrhea, frequency ([6]; Lancaster et al. 2017, IPF): ≤ 27.6 per 100PEY; fatigue, frequency ([6]; Lancaster et al. 2017, IPF): ≤ 52.4 per 100PEY; nausea, frequency ([6]; Lancaster et al. 2017, IPF): ≤ 62.1 per 100 PEY; adverse drug reactions leading to permanent treatment discontinuation ([6]; PASSPORT study, Cottin et al. 2018): 28.7%; patients with an adverse event ([6]; compassionate use program, Raghu & Thickett 2013): 44%; patients with ADR leading to discontinuation ([6]; patients aged <65 years): 7.5%; patients with ADR leading to dose modification/interruption ([6]; patients aged <65 years): 18.0%; patients with ADR leading to discontinuation ([6]; patients aged ≥80 years): 20.9%; patients with ADR leading to dose modification/interruption ([6]; patients aged ≥80 years): 32.7%; elevations of AST and ALT to >3× ULN ([6]; phase III trials): 3.2%; reported AEs that were GI-related ([6]; single-center retrospective study of 351 patients): 75%
